Laboratory results: patent US12616696B2, “Crystalline forms of (p)-3-chloro-4-((3,5-difluoropyridin-2-yl)methoxy)-2′-(2-(2-hydroxypropan-2-yl)pyrimidin-4-yl)-5′,6-dimethyl-2h-[1,4′-bipyridin]-2-one” (ACLARIS THERAPEUTICS, INC., priority 2020, dated 2026)

What was measured:
in vitro = details: 50 mg, Tmax (time interval where BAmax is recorded)
Procedure: Test System: The study was performed in the TNO dynamic, multi-compartmental in vitro system of the stomach and small intestine (tiny-TIM). The tiny-TIM system consists of a gastric compartment and one small intestinal compartment (FIG. 8). This compartment is composed of two glass units with a flexible silicone inner wall enclosing the luminal material. The space between the inner and outer walls is filled with water. Peristaltic mixing of the chyme is the result of alternate compression and relaxation of the flexible inner wall. The compartments are connected by peristaltic valve pumps that successively open and close, allowing the chyme to transit over time through the compartments. […] The set-points for gastrointestinal simulation are controlled and monitored by specific computer programs. […]
Filtration of released and dissolved/solubilized drug molecules from the intestinal lumen via a semi-permeable membrane unit (Fresenius plasmaFlux® P1dry) allowed the assessment of the so-called bio-accessible fraction, i.e. the fraction of the drug which is available for small intestinal absorption. […] The collected volume per time period was measured and sub-samples were taken, instantly diluted in 50% Acetonitrile in Milli-q water and stored at 2-10° C., protected from light, until analysis.

phospho-HSP27 = experiment: Phosphoprotein analysis in PMA-differentiated U937 cells: phospho-Hsp27/total Hsp27; format: cell-based; details: Homo sapiens, U-937, read-out: pHSP27/Total HSP27 IC50
Procedure: (§1) The JNK pathway leads to increased inflammation by boosting production of inflammatory cytokines. […] Classical p38 inhibitors block the phosphorylation of downstream substrates of p38 while elevating activity of parallel pathways such as JNK. Evaluation of the impact of different classes of p38 inhibitors on p38 and JNK pathway regulation was carried out using phospho-HSP27 and phosphor-JNK for the two pathways, respectively. Evaluation of the potency and efficacy of p38 inhibitors to impact phosphoprotein levels was carried out using the human U937 cell line. The U937 human pre-monocytic cell line was obtained from the American Type Culture Collection (Rockville, MD). These cells were differentiated to a monocytic/macrophage phenotype as described by Burnette (Burnette et al, (2009). SD0006: a potent, selective and orally available inhibitor of p38 MAP Kinase, Pharmacology 84(1):42-60). Suspension cells (approximately 0.5 million per milliliter in T75 cm^2 tissue culture flasks) were grown in RPMI containing 10% fetal bovine serum (FBS) plus antibiotics. On day one, phorbol 12-myristate 13-acetate (PMA, 20 ng/mL) was added to the culture flask and the cells were incubated overnight at 37° C./5% CO2. The cells were washed on day two by centrifuging and resuspending them in fresh media without PMA. […]

physchem = details: thermodynamic from solid; for solubility: 23 °C; for solubility at 1 h: 40 °C, Solubility at 40° C.
phospho-JNK = experiment: Phosphoprotein analysis in PMA-differentiated U937 cells: phospho-JNK/total JNK; format: cell-based; details: Homo sapiens, U-937, read-out: pJNK/Total JNK EC50
Procedure: as §1

Cc1cnc(-c2ccnc(C(C)(C)O)n2)cc1-n1c(C)cc(OCc2ncc(F)cc2F)c(Cl)c1=O (atropisomer, axis not shown; (P)) [Compound 49a, (P)-3-chloro-4-((3,5-difluoropyridin-2-yl)methoxy)-2′-(2-(2-hydroxypropan-2-yl)pyrimidin-4-yl)-5′,6-dimethyl-2H-[1,4′-bipyridin]-2-one]
Tmax (in vitro): 1 to 1.5 h
IC50 (phospho-HSP27): 1.15 nM
solubility (physchem; organic solvent or mixture, low solubility at RT): < 10000 µg/mL
solubility (physchem; water, Solubility at RT): < 6000 µg/mL
solubility at 1 h (physchem; organic solvent or mixture): > 9000 µg/mL
solubility at 1 h (physchem; water): < 6000 µg/mL
EC50 (phospho-JNK): 117 nM
